Reference: PubChem BioAssay AID248 (DTP/NCI, 2004)
“And” between values parts separate entries of the source, which are not always exact repeats. Equal values may be shown once. Toxic doses and inconclusive results are not listed. No stated cut-off is given here; in the data, active means T/C of 150% or more; inactive means T/C below 125%.

System: L1210 leukemia ip in BDF1 mice, survival T/C
Experiment: NCI In Vivo Anticancer Drug Screen. Data for tumor model L1210 Leukemia (intraperitoneal) in B6D2F1 (BDF1) mice
Conditions: endpoint: mean survival time, higher = longer survival
How it was run: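 Value reflects the ratio of survival in compound-treated mice to survival in vehicle-treated controls, with both groups carrying the same transplanted tumor.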

[1] = dose: 100.0 mg/kg/injection, schedule: Q04DX003 (ip), vehicle: saline
[2] = dose: 200.0 mg/kg/injection, schedule: Q04DX003 (ip), vehicle: saline
[3] = dose: 100.0 mg/kg/injection, schedule: Q04DX003 (ip), vehicle: saline with Tween-80
[4] = dose: 200.0 mg/kg/injection, schedule: Q04DX003 (ip), vehicle: saline with Tween-80
[5] = dose: 400.0 mg/kg/injection, schedule: Q04DX003 (ip), vehicle: saline with Tween-80
[6] = dose: 100.0 mg/kg/injection, schedule: Q04DX003 (ip), vehicle: Klucel (hydroxypropylcellulose) (HPC)
[7] = dose: 200.0 mg/kg/injection, schedule: Q04DX003 (ip), vehicle: Klucel (hydroxypropylcellulose) (HPC)
[8] = dose: 400.0 mg/kg/injection, schedule: Q04DX003 (ip), vehicle: Klucel (hydroxypropylcellulose) (HPC)
[9] = dose: 100.0 mg/kg/injection, schedule: Q01DX001 (ip), vehicle: saline
[10] = dose: 200.0 mg/kg/injection, schedule: Q01DX001 (ip), vehicle: saline
[11] = dose: 400.0 mg/kg/injection, schedule: Q01DX001 (ip), vehicle: saline
[12] = dose: 100.0 mg/kg/injection, schedule: Q04DX002 (ip), vehicle: saline with Tween-80
[13] = dose: 200.0 mg/kg/injection, schedule: Q04DX002 (ip), vehicle: saline with Tween-80
[14] = dose: 400.0 mg/kg/injection, schedule: Q04DX002 (ip), vehicle: saline with Tween-80
[15] = dose: 100.0 mg/kg/injection, schedule: Q01DX001 (ip), vehicle: saline with Tween-80
[16] = dose: 200.0 mg/kg/injection, schedule: Q01DX001 (ip), vehicle: saline with Tween-80
[17] = dose: 200.0 mg/kg/injection, schedule: Q01DX001 (ip), vehicle: other
[18] = dose: 100.0 mg/kg/injection, schedule: Q01DX009 (ip), vehicle: saline with Tween-80
[19] = dose: 200.0 mg/kg/injection, schedule: Q01DX009 (ip), vehicle: saline with Tween-80
[20] = dose: 400.0 mg/kg/injection, schedule: Q01DX009 (ip), vehicle: saline with Tween-80
[21] = dose: 6.25 mg/kg/injection, schedule: Q01DX009 (ip), vehicle: Klucel (hydroxypropylcellulose) (HPC)
[22] = dose: 12.5 mg/kg/injection, schedule: Q01DX009 (ip), vehicle: Klucel (hydroxypropylcellulose) (HPC)
[23] = dose: 25.0 mg/kg/injection, schedule: Q01DX009 (ip), vehicle: Klucel (hydroxypropylcellulose) (HPC)

Measured: T/C

O=C(O)c1ccnc(-c2ccc(Cl)cc2)c1
inactive: [1] 90 % of control | [2] 92 % of control

COC1OC2COc3ccccc3OC2C(NC(N)=S)C1S (configuration not stated)
inactive: [3] 102 % of control | [4] 95 % of control | [5] 102 % of control

CCCCCCCCCCCCCCCCN(C)c1ccc([N+](=O)[O-])cc1
inactive: [6] 94 % of control | [7] 96 % of control | [8] 96 % of control

O=c1[nH]nc(CCc2ccccc2)o1
inactive: [9] 97 % of control | [1] 98 % of control | [10] 92 % of control | [2] 93 % of control | [11] 95 % of control | dose: 400.0 mg/kg/injection, schedule: Q04DX003 (ip), vehicle: saline 113 % of control

CCOP(=S)(N/N=C1/C2(C)CCC(C2)C1(C)C)OCC (configuration not stated)
inactive: [9] 97 % of control | [10] 97 % of control | [11] 91 % of control

Cc1cccc(P(=O)(c2ccccc2)c2ccccc2)c1 (tested in a mixture with another compound)
inactive: [12] 104 % of control | [13] 96 % of control | [14] 88 % of control

c1ccc(CCN2CCCCC2)nc1
inactive: dose: 1.56 mg/kg/injection, schedule: Q01DX009 (ip), vehicle: saline 94 % of control | dose: 3.13 mg/kg/injection, schedule: Q01DX009 (ip), vehicle: saline 93 % of control | dose: 6.25 mg/kg/injection, schedule: Q01DX009 (ip), vehicle: saline 89 % of control

O=C(Nc1cccc(Cl)c1)Oc1ccc(S(=O)(=O)F)cc1Cl
inactive: [12] 94 % of control | [13] 91 % of control

O=C(Nc1ccccc1)C(Cl)S(=O)(=O)O (configuration not stated)
inactive: [15] 97 % of control | [16] 97 % of control

O=C(CNc1ccccc1)c1ccc(O)c(C(=O)O)c1 (tested in a mixture with another compound)
inactive: [6] 91 % of control | [7] 90 % of control | [8] 93 % of control

Nc1cc2c(cc1Br)-c1c(C(=O)O)cccc1C2=O
inactive: dose: 75.0 mg/kg/injection, schedule: Q01DX001 (ip), vehicle: carboxymethylcellulose (CMC) 101 % of control | dose: 150.0 mg/kg/injection, schedule: Q01DX001 (ip), vehicle: carboxymethylcellulose (CMC) 95 % of control | dose: 300.0 mg/kg/injection, schedule: Q01DX001 (ip), vehicle: carboxymethylcellulose (CMC) 98 % of control

N#CCCCCSC12CC3CC(CC(C3)C1)C2
inactive: dose: 100.0 mg/kg/injection, schedule: Q04DX002 (ip), vehicle: Klucel (hydroxypropylcellulose) (HPC) 115 % of control | dose: 200.0 mg/kg/injection, schedule: Q04DX002 (ip), vehicle: Klucel (hydroxypropylcellulose) (HPC) 108 % of control | dose: 400.0 mg/kg/injection, schedule: Q04DX002 (ip), vehicle: Klucel (hydroxypropylcellulose) (HPC) 89 % of control

CCCCCCCCCCCCCCCCC/C=N\NC(=O)CCCC(=O)N/N=C/CCCCCCCCCCCCCCCCC
inactive: dose: 50.0 mg/kg/injection, schedule: Q01DX001 (ip), vehicle: other 90 % of control | [17] 88 % of control

COc1cccc(/C=N/Nc2nnc(N/N=C/c3cccc(OC)c3)c3ccccc23)c1
inactive: dose: 50.0 mg/kg/injection, schedule: Q01DX001 (ip), vehicle: carboxymethylcellulose (CMC) 101 % of control | dose: 100.0 mg/kg/injection, schedule: Q01DX001 (ip), vehicle: carboxymethylcellulose (CMC) 107 % of control | dose: 200.0 mg/kg/injection, schedule: Q01DX001 (ip), vehicle: carboxymethylcellulose (CMC) 103 % of control

Oc1ccc(O)c(CCCc2cc(O)ccc2O)c1
inactive: [3] 98 % of control | [4] 98 % of control | [5] 90 % of control

CC(=O)Nc1ccc(S(=O)(=O)Nc2cc(Cl)ccc2Cl)cc1
inactive: [18] 103 % of control | [19] 102 % of control | [20] 97 % of control

CC(C)(C)c1ccc(SCCN=C(N)CSS(=O)(=O)O)cc1
inactive: dose: 3.13 mg/kg/injection, schedule: Q01DX009 (ip), vehicle: Klucel (hydroxypropylcellulose) (HPC) 91 % of control | dose: 3.13 mg/kg/injection, schedule: Q04DX002 (ip), vehicle: Klucel (hydroxypropylcellulose) (HPC) 98 % of control | [21] 102 % of control | dose: 6.25 mg/kg/injection, schedule: Q04DX002 (ip), vehicle: Klucel (hydroxypropylcellulose) (HPC) 107 % of control | dose: 12.5 mg/kg/injection, schedule: Q04DX002 (ip), vehicle: Klucel (hydroxypropylcellulose) (HPC) 98 % of control and 106 % of control

[N-]=Cc1c(O)cccc1Cl.[N-]=Cc1cc(Cl)ccc1O.[Ni+2]
inactive: [21] 96 % of control | [22] 93 % of control | [23] 95 % of control | [6] 97 % of control | [7] 87 % of control | [8] 86 % of control

CNS(=O)(=O)c1ccc(NC(=O)C(Cl)Cl)cc1
inactive: dose: 100.0 mg/kg/injection, schedule: Q01DX001 (ip), vehicle: other 101 % of control | [18] 95 % of control | [17] 103 % of control | [19] 106 % of control | dose: 400.0 mg/kg/injection, schedule: Q01DX001 (ip), vehicle: other 101 % of control | [20] 102 % of control

CCCc1c2cc(OC)c(OC)cc2cc2c3cc(OC)c(OC)cc3cc[n+]12 (tested in a mixture with another compound)
inactive: [22] 109 % of control | [23] 107 % of control | dose: 50.0 mg/kg/injection, schedule: Q01DX009 (ip), vehicle: Klucel (hydroxypropylcellulose) (HPC) 106 % of control and 123 % of control | [6] 100 % of control | [7] 110 % of control

O=C(NC(=S)Nc1cccc(O)c1)c1cccc([N+](=O)[O-])c1
inactive: [15] 93 % of control | [18] 94 % of control and 87 % of control | [12] 98 % of control and 101 % of control | [3] 89 % of control | [16] 97 % of control | [19] 93 % of control and 105 % of control | [13] 96 % of control and 109 % of control | [4] 109 % of control | dose: 400.0 mg/kg/injection, schedule: Q01DX001 (ip), vehicle: saline with Tween-80 103 % of control | [20] 94 % of control | [14] 101 % of control | [5] 94 % of control

O=C(Nc1cccc2ccccc12)NC1CC1
inactive: dose: 100.0 mg/kg/injection, schedule: Q01DX009 (ip), vehicle: other 94 % of control | dose: 100.0 mg/kg/injection, schedule: Q04DX003 (ip), vehicle: other 97 % of control | dose: 200.0 mg/kg/injection, schedule: Q01DX009 (ip), vehicle: other 94 % of control | dose: 200.0 mg/kg/injection, schedule: Q04DX003 (ip), vehicle: other 96 % of control | dose: 400.0 mg/kg/injection, schedule: Q01DX009 (ip), vehicle: other 94 % of control | dose: 400.0 mg/kg/injection, schedule: Q04DX003 (ip), vehicle: other 87 % of control
